Assay results taken from the supplement of paper PMC13380429.
± gives the standard deviation of the averaged measurements.

Columns and labels:
Conditions in all cases: 72 h
Vero E6 [1] = assay: drug sensitivity score (DSS) for viability; higher = more toxic; extreme values may be limits of the assay
HepG2 [2] = assay: as above
Caco-2 [3] = assay: as above
U2OS [4] = assay: as above
Vero E6 [5] = assay: relative viability EC50 (midpoint between 100% and the lowest measured viability); higher = less toxic
HepG2 [6] = assay: as above
Caco-2 [7] = assay: as above
U2OS [8] = assay: as above
Vero E6 [9] = assay: cell viability relative to DMSO; higher = less toxic
HepG2 [10] = assay: as above
Caco-2 [11] = assay: as above
U2OS [12] = assay: as above
Calu-3 [13] = assay: drug sensitivity score (DSS) for viability; higher = more toxic; extreme values may be limits of the assay
Calu-3 [14] = assay: cell viability relative to DMSO; higher = less toxic

Row | Compound | drug sensitivity score (Vero E6 [1]) | drug sensitivity score (HepG2 [2]) | drug sensitivity score (Caco-2 [3]) | drug sensitivity score (U2OS [4]) | relative viability EC50 (Vero E6 [5]) | relative viability EC50 (HepG2 [6]) | relative viability EC50 (Caco-2 [7]) | relative viability EC50 (U2OS [8]) | cell viability (Vero E6 [9]; 1 nM) | cell viability (Vero E6 [9]; 10 nM) | cell viability (Vero E6 [9]; 100 nM) | cell viability (Vero E6 [9]; 1000 nM) | cell viability (Vero E6 [9]; 10000 nM) | cell viability (HepG2 [10]; 1 nM) | cell viability (HepG2 [10]; 10 nM) | cell viability (HepG2 [10]; 100 nM) | cell viability (HepG2 [10]; 1000 nM) | cell viability (HepG2 [10]; 10000 nM) | cell viability (Caco-2 [11]; 1 nM) | cell viability (Caco-2 [11]; 10 nM) | cell viability (Caco-2 [11]; 100 nM) | cell viability (Caco-2 [11]; 1000 nM) | cell viability (Caco-2 [11]; 10000 nM) | cell viability (U2OS [12]; 1 nM) | cell viability (U2OS [12]; 10 nM) | cell viability (U2OS [12]; 100 nM) | cell viability (U2OS [12]; 1000 nM) | cell viability (U2OS [12]; 10000 nM) | drug sensitivity score (Calu-3 [13]) | cell viability (Calu-3 [14]; 1 nM) | cell viability (Calu-3 [14]; 10 nM) | cell viability (Calu-3 [14]; 100 nM) | cell viability (Calu-3 [14]; 1000 nM) | cell viability (Calu-3 [14]; 10000 nM)
1 | CN(c1ccccc1CNc1nc(Nc2ccc3c(c2)CC(=O)N3)ncc1C(F)(F)F)S(C)(=O)=O | 9.6 | 10.9 | 6 | 9.2 | 1070 nM | 895 nM | 1610 nM | 1580 nM | 97% | 88.8% | 81.2% | 65.4% | 10.3% | 92.8% | 89.9% | 92.9% | 51.5% | 7.2% | 92.4% | 91.6% | 91.5% | 83.8% | 33.6% | 98.2% | 102% | 94.3% | 76.1% | 0.2% |  |  |  |  |  | 
2 | Cc1ccc(-c2c(-c3nn(C)c4ncnc(N5CC[C@H](N6CCCCC6)C5)c34)cnn2C)cc1 |  |  | 0 | 0 |  |  | > 10000 nM | > 10000 nM |  |  |  |  |  |  |  |  |  |  | 106% | 102% | 106% | 96.1% | 100% | 104% | 99.5% | 99% | 98.9% | 100% |  |  |  |  |  | 
3 | Cn1cccc1/C=C1\C(=O)NC(=O)c2ccccc21 | 0.9 | 6.5 | 1.8 | 3.7 |  | 1840 nM |  | 3280 nM | 104% | 108% | 104% | 106% | 71.4% | 83.2% | 103% | 72.1% | 83% | 21.2% | 106% | 103% | 108% | 109% | 55.2% | 110% | 105% | 106% | 101% | 29.8% | 2.7 | 98.6% | 97.5% | 102% | 91% | 69%
4 | Cn1ncc(Cl)c1-c1cc(C(=O)N[C@H](CN)Cc2cccc(F)c2)sc1Cl | 0 | 0 | 0 | 0 | > 10000 nM | > 10000 nM | > 10000 nM | > 10000 nM | 91.8% | 101% | 91.5% | 93.6% | 100% | 86.8% | 101% | 96.7% | 93.8% | 84.7% | 83.6% | 85.6% | 95.3% | 79.7% | 71% | 97.2% | 95.6% | 97.9% | 94.1% | 89.2% | 3.3 | 98% | 97.6% | 104% | 89.7% | 63.6%
5 | NCC1OC(C23CC4CC(CC(C4)C2)C3)Cc2c1ccc(O)c2O (stereo not drawn) | 2 | 4 | 4 | 0 |  | 3260 nM |  | > 10000 nM | 94% | 97.3% | 96% | 100% | 58.8% | 101% | 95.9% | 103% | 101% | 26.5% | 114% | 86.9% | 94.3% | 85.1% | 54.4% | 102% | 100% | 99% | 94.9% | 92.5% | 2.6 | 106% | 98.1% | 100% | 94.2% | 65.3%
6 | O=C(NOCCO)c1cc(CN2OCCCC2=O)c(F)c(F)c1Nc1ccc(I)cc1F | 15 | 26.2 | 13.5 | 4.9 |  |  |  |  | 89.3% | 85.2% | 61.2% | 50.7% | 50.4% | 100% | 70% | 34% | 19% | 21.6% | 88.1% | 76.9% | 67.9% |  | 68.2% | 97.2% | 92.9% | 90.1% | 87.4% | 43.7% | 15.9 | 96% | 92.1% | 61.7% | 43.4% | 32.7%
7 | COc1cc2c(cc1O)CC[C@@H]1[C@@H]2CC[C@]2(C)[C@@H](O)CC[C@@H]12 [2-methoxyestradiol] | 4.3 | 2.8 | 4.9 | 5.9 | 2500 nM | 3990 nM |  | 1150 nM | 99.6% | 97.8% | 98.9% | 94.8% | 36.2% | 96.1% | 99.9% | 91.7% | 115% | 33.8% | 99.1% | 105% | 101% | 77.4% | 58.1% | 96.4% | 95.1% | 102% | 77.8% | 46.5% | 2.1 | 103% | 107% | 106% | 98.9% | 60.2%
8 | O=C(O)CCC(=O)C(=O)O [2-oxoglutaric-acid] | 0 | 0 | 0 | 0 | > 10000 nM | > 10000 nM | > 10000 nM | > 10000 nM | 97.8% | 104% | 98.3% | 104% | 102% | 97.9% | 94.3% | 91.4% | 98.8% | 105% | 95.3% | 97.7% | 95% | 94.2% | 91.5% | 98.5% | 99.5% | 95.2% | 98.7% | 99.3% |  |  |  |  |  | 
9 | COc1ccc(S(=O)(=O)Nc2cccnc2Nc2ccc(O)cc2)cc1 [ABT-751] | 14.2 | 10 | 10.1 | 9.2 | 248 nM | 522 nM | 260 nM | 884 nM | 102% | 98.9% | 93.3% | 29.8% | 27.9% | 101% | 108% | 105% | 45.1% | 35.2% | 100% | 89.6% | 86.3% | 53.7% | 42.4% | 103% | 99.4% | 104% | 57.5% | 26.4% | 6.2 | 108% | 87.3% | 94% | 69.4% | 55.8%
10 | COc1cc(-c2ncn(/C=C\C(=O)OC(C)C)n2)cc(C(F)(F)F)c1 [KPT-185] | 11.6 | 15.1 | 9 | 17.6 | 573 nM | 218 nM | 480 nM | 284 nM | 97.1% | 102% | 96.4% | 41.8% | 20% | 105% | 100% | 84.3% | 29.1% | 23.9% | 94.7% | 96.5% | 92.2% | 57% | 38.9% | 98.1% | 93.7% | 89.5% | 11.3% | 4.1% | 10 | 99.4% | 91.1% | 81.8% | 55.6% | 51.9%
11 | Cc1cc(C)cc(C(=O)NOCCCCCC(=O)NO)c1 [LMK-235] | 12.7 | 15.1 | 10.4 | 11.6 | 777 nM | 441 nM | 1220 nM | 884 nM | 95.3% | 102% | 96.1% | 39.8% | -0.1% | 95.1% | 93.3% | 79.4% | 34.4% | 0.3% | 107% | 86.9% | 96.4% | 60.3% | 0.9% | 95.9% | 91.3% | 90.4% | 49.3% | 1.9% |  |  |  |  |  | 
12 | CCOC(=O)c1ccc(N2NC(=O)/C(=C/c3ccc([N+](=O)[O-])o3)C2=O)cc1 [PYR-41] | 0.1 | 0.1 | 2.6 | 1.8 | > 10000 nM | > 10000 nM |  | > 10000 nM | 103% | 103% | 99.2% | 101% | 85.7% | 112% | 99.7% | 94.4% | 105% | 84.9% | 96% | 100% | 95.1% | 85% | 71.2% | 93.5% | 98.3% | 101% | 93.4% | 75.5% | 5.7 | 85.5% | 101% | 92.2% | 71.6% | 62%
13 | COc1cc(/C=C/c2ccc(OC)cc2OC)cc(OC)c1 [TMS] | 5 | 4.3 | 4.2 | 2.4 | 2080 nM | 1940 nM |  |  | 93.6% | 95.5% | 94.7% | 91.3% | 35% | 98.7% | 94.7% | 96.1% | 91.5% | 46.2% | 86.4% | 97.6% | 81.6% | 92.4% | 55.5% | 98.8% | 107% | 94.1% | 101% | 52.5% | 1.4 | 97% | 99.6% | 92.6% | 106% | 62.8%
14 | C/C(=N\Nc1nnc2c(n1)[nH]c1c(C)cccc12)c1ccccn1 [VLX600] | 14.6 ± 2.2 | 14.85 ± 0.071 | 14.8 ± 0.35 | 12.2 ± 1.3 | 525 nM | 319 nM | 320 nM | 418 nM | 101 ± 6% | 100.5 ± 0.49% | 104 ± 2.5% | 21.6 ± 15% | 4.95 ± 1.2% | 102 ± 2.3% | 107 ± 10% | 103 ± 11% | 17.9 ± 6% | 23.6 ± 1.6% | 95.5 ± 6% | 101 ± 1.6% | 98.1 ± 4.1% | 20.2 ± 5.8% | 21 ± 2.1% | 100 ± 3.2% | 99.6 ± 9.3% | 98.9% | 34.3 ± 6.7% | 27 ± 0.99% |  |  |  |  |  | 
15 | CC#CC(=O)N1CCC[C@H]1c1nc(-c2ccc(C(=O)Nc3ccccn3)cc2)c2c(N)nccn12 [acalabrutinib] | 0 | 0 | 0 | 0 | > 10000 nM | > 10000 nM | > 10000 nM | > 10000 nM | 91.4% | 99.7% | 93.1% | 96.7% | 98.2% | 95.9% | 96.7% | 95% | 103% | 102% | 92.1% | 101% | 99.4% | 90.5% | 97.8% | 99.3% | 95.6% | 105% | 95.3% | 102% | 7.3 | 99.5% | 89.1% | 84.2% | 67.8% | 65.3%
